We go through one compound from US6770673B1, “Therapeutic uses of arglabin in combination with other chemotherapy agents” (priority 1997, dated 2004).

Common to all, as to conditions: dose 30 mg/kg
For assay [1], the system named is Worker's carcinosarcoma. Briefly: Inhibition of tumor growth in implanted tumors. It is filed as in vivo, mice and rats.
Assay [2] has as its system Alveolar Cancer of the liver. Briefly: Inhibition of tumor growth in implanted tumors. The assay is classed as in vivo, mice and rats.
Assay [3] has as its system M-1 Sarcoma. Put plainly: Inhibition of tumor growth in implanted tumors. The assay is classed as in vivo, mice and rats.
Assay [4] deals with Pliss lymphosarcoma. Briefly: Inhibition of tumor growth in implanted tumors. The assay is classed as in vivo, rats.
Assay [5] relates to Breast Cancer RMC-1. Briefly: Inhibition of tumor growth in implanted tumors. It is filed as in vivo, mice and rats.
The test system of assay [6] is Sarcoma-45 resistant to prospidine. Briefly: Inhibition of growth of resistant tumour strains. The assay is classed as in vivo, rats.
The subject of assay [7] is Sarcoma-45 resistant to rubidomycin. Briefly: Inhibition of growth of resistant tumour strains. It is filed as in vivo, rats.
For assay [8], the system named is Sarcoma-45. Briefly: Inhibition of tumor growth in implanted tumors. It is filed as in vivo, rats.
In assay [9] the test system is Pliss Lymphosarcoma resistant to rubidomycin. Put plainly: Inhibition of growth of resistant tumour strains. It is filed as in vivo, rats.
The test system of assay [10] is Pliss Lymphosarcoma resistant to leucoeffdine. Put plainly: Inhibition of growth of resistant tumour strains; tumor disappearance. It is filed as in vivo, rats.
The test system of assay [11] is Sarcoma-45 resistant to 5-fluorouracil. Put plainly: Inhibition of growth of resistant tumour strains. It is filed as in vivo, rats.

As to `C=C1C(=O)OC2C1CCC1(C)OC13CC1OC1(C)C23` (centres unmarked) [Epoxyarglabin (2), 1(10), 3(4)-diepoxy-guai-11(13)-en-6,12-olid], the “Inhibition of Tumour Growth, % - Worker's carcinosarcoma” value in [1] was found to be 36.4%. In [2], the “Inhibition of Tumour Growth, % - Alveolar Cancer of the liver” value worked out at 70.4%. In assay [3], the “Inhibition of Tumour Growth, % - M-1 Sarcoma” value stood at 78.4%. For the same compound, the “Inhibition of Tumour Growth, % - Pliss lymphosarcoma” value in assay [4] turned out to be 72.1%. For the same compound, the “Inhibition of Tumour Growth, % - Breast Cancer RMC-1” value in assay [5] is on record as 59.6%. In assay [6], the “Inhibition of Tumour Strains Growth, % - Resistant Forms - Sarcoma-45 to prospidine” value turned out to be 70.4%. For the same compound, the “Inhibition of Tumour Strains Growth, % - Resistant Forms - Sarcoma-45 to rubidomycin” value in assay [7] was 78.6%. Moreover, in assay [8], the “Inhibition of Tumour Growth, % - Sarcoma-45” value is recorded as 88.8%. The “Inhibition of Tumour Strains Growth, % - Resistant Forms - Pliss Lymphosarcoma to rubidomycin” value in assay [9] turned out to be 78.0%. For the same compound, the “Inhibition of Tumour Strains Growth, % - Resistant Forms - Pliss Lymphosarcoma to leucoeffdine” value in assay [10] was 79.8%. Moreover, the “Inhibition of Tumour Strains Growth, % - Resistant Forms - Sarcoma-45 to 5-fluorouracil” value in assay [11] worked out at 66.0%.
